This is an account of results in patent US12419875B2, “Use of Axitinib and analogs thereof in preparing blood-brain barrier permeability regulator” (ZHEJIANG UNIVERSITY, priority 2018, dated 2025).

The subject of data set [1] is pathological blood-brain barrier. Nature of the data set: Evans blue permeation into the brain after a single dose, model of Parkinson's disease. It is filed as in vivo, C57/BL6 mice. The settings on record: Parkinson's disease mice, 10 mg/kg tail vein, Evans blue after 24 hours; vs Parkinson's control; FIGS. 24 and 25.
In a further data set the test system is U87 MG glioma cells. Nature of the data set: Cell survival rate by tetrazolium blue colorimetry, U87 MG cells. It is filed as cell-based. The settings on record: U87MG cells, 10 μM (therapeutic dose); FIGS. 13 and 14. How it is done: FIG. 13: Evaluation of cell survival rate in a Transwell model. A Transwell model of co-incubation of brain microvascular endothelial cells bEnd.3 and glioma cells U87 MG simulates a pathological blood-brain barrier. Axitinib (10 μM) and an Axitinib analog of phosphatidylinositol kinase (PI3K) inhibitor LY294002 (10 μM) were added into the Transwell chamber. After 24 hours, the survival rate of bEnd.3 cells in the Transwell chamber (Panel A) and U87 MG cells in the Transwell outer chamber (Panel B) were detected by tetrazolium blue colorimetry (n=3).
FIG. 14: Evaluation of Cytotoxicity for Axitinib and an analog thereof. […] Cell survival rate was detected by tetrazolium blue colorimetry. […]
The physiological blood-brain barrier and the pathological blood-brain barrier as constructed in Method 1 and Method 2 in the Example 1 were used as models, respectively. […] Absorbance at 570 nm was measured with a microplate reader. The survival rate of cells was calculated according to the following formula: Survival rate of cells (%)=(absorbance value of a test group/absorbance value of a control group)×100%
In addition, bEnd.3 cells and U87 MG glioma cells were used as model cells to evaluate the cytotoxicity of Axitinib and an Axitinib analog of phosphatidylinositol kinase (PI3K) inhibitor LY294002 with the tetrazolium blue colorimetric method. […] Absorbance at 570 nm was measured with a microplate reader.

For `CNC(=O)c1ccccc1Sc1ccc2c(/C=C/c3ccccn3)n[nH]c2c1` [Axitinib, N-methyl-2-((3-((1E)-2-(pyridine-2-yl)ethenyl)-1H-indazol-6-yl)sulfanyl)benzamide], the “Amount of Evans blue permeated into the brain” value in data set [1] is given as “the amount of Evans blue permeated into the brain is reduced”. The Cytotoxicity result in the data set on U87 MG glioma cells is “do not produce significant cytotoxicity”.
